Data on two molecules can be found in patent publication US5639777A, “1,4,5-triphenyl pyrazolyl compounds for the treatment of inflammation and inflammation-related disorders” (G.D. Searle & Co., priority 1996, dated 1997).

Data set [1] concerns carrageenan-induced foot edema in rats. The data set can be described thus: Rat Carrageenan Foot Pad Edema Test. The class given is in vivo, Male Sprague-Dawley rats. The note with it: @ 10 mg/kg body weight; oral; foot volume three hours after carrageenan injection. The method, then:
The carrageenan foot edema test was performed with materials, reagents and procedures essentially as described by Winter, et al., (Proc. soc. Exm. Biol. Med., 111, 544 (1962)). Male Sprague-Dawley rats were selected in each group so that the average body weight was as close as possible. Rats were fasted with free access to water for over sixteen hours prior to the test. The rats were dosed orally (1 mL)with compounds suspended in vehicle containing 0.5% methylcellulose and 0.025% surfactant, or with vehicle alone. One hour later a subplantar injection of 0.1 mL of 1% solution of carrageenan/sterile 0.9% saline was administered and the volume of the injected foot was measured with a displacement plethysmometer connected to a pressure transducer with a digital indicator. Three hours after the injection of the carrageenan, the volume of the foot was again measured. The average foot swelling in a group of drug-treated animals was compared with that of a group of placebo-treated animals and the percentage inhibition of edema was determined (Otterness and Bliven, Laboratory Models for Testing NSAIDs, in Non-steroidal Anti-Inflammatory Drugs, (J. Lombardino, ed. 1985)).
(In general: Carrageenan injected into the paw causes an acute inflammation.)

For data set [2] the following is noted: compared with other common anti-inflammatory agents; cited from earlier work.

With `CS(=O)(=O)c1ccc(-c2c(-c3ccc(F)cc3)c(C(F)(F)F)nn2-c2ccccc2)cc1` [Example 1, 4-(4-Fluorophenyl)-5-[4-(methylsulfonyl)phenyl]-1-phenyl-3-(trifluoromethyl)pyrazole], the “% Inhibition (rat paw edema)” value in data set [1] turned out to be 20%.

Consider `O=C(O)Cc1c(-c2ccccc2)c(-c2ccccc2)nn1-c1ccccc1` [Isofezolac, 1,3,4-triphenyl-1H-pyrazole-5-acetic acid], for which the ulcerogenic entry in data set [2] was “as ulcerogenic as other common anti-inflammatory agents”.
